Consider one substance from US12516085B2, “Methods and compositions for treating Myc-driven cancers” (Sanford Burnham Prebys Medical Discovery Institute, priority 2019, dated 2026).

“Also recorded” adds a separate entry of the source.

Common to all, as to assay type: cell-based
Assay [1] deals with Myc protein. Description: Western blot of Myc protein after Doxycycline-induced HNB expression in MSTO-211H-HNB^i. As to conditions: Hi-Myc cell line MSTO-211H-HNB^i; following Doxycycline induction. The method, then: (§1) In addition, an inducible lentiviral system was developed, in which the transgene could be expressed under a Doxycycline inducible promoter. The system was verified by inserting eGFP as the transgene and by flow analysis of GFP^+ cells in absence and presence of doxycycline as shown in FIG. 8. […] The same system was used to clone HNB under the regulation of a Doxycycline inducible promoter and generate the cell lines MSTO-211H-HNB^i and U2OS-HNB^i. […] Western blot analysis was performed of Myc protein in Hi-Myc cell line MSTO-211H-HNB^i.
A general note: A western blot detects proteins with antibodies after separation by electrophoresis.

Assay [2] has as its system MSTO-211H-HNB^i. Description: Proliferation after Doxycycline-induced HNB expression, MSTO-211H-HNB^i. As to conditions: following Doxycycline treatment. How it is done:
as §1

The test system of assay [3] is U2OS-HNB^i. Description: Proliferation after Doxycycline-induced HNB expression, U2OS-HNB^i. As to conditions: following Doxycycline treatment. How it is done: as §1
The test system of assay [4] is Hi- and Lo-Myc cell lines. Description: Proliferation of Hi- and Lo-Myc cell lines transfected with lentiviral vectors expressing GFP, HNB or HNB(ATG>TGA). As to conditions: 8 Hi- and Lo-Myc cell lines; lentiviral overexpression. The source says:
To determine the function of the HNB, the Hi- and Lo-Myc cell lines were transfected with lentiviral vectors expressing GFP, HNB or HNB where the start site has been mutated (HNB(ATG>TGA)).

For the substance “HNB: 14 amino acid micro-peptide MKTQLGAVKGFLHV (SEQ ID NO: 1) coded by shORF at Exon 3-4 junction of PVT1ts; expressed from lentiviral vectors”, in assay [1], the “Myc protein expression (western blot, relative to β-Actin)” value is on record as “decreased; also recorded: reduced MYC protein”. Also, the proliferation rate entry in assay [2] and in assay [3] was “significant reduction in their proliferation rates” each time. In addition, in assay [4], the proliferation result was “failed to proliferate”.
